Source: patent publication US5744492A, “Method for inhibiting angiogenesis” (United States of America, priority 1994, dated 1998)

What was measured:
Type in all cases: cell-based, human
HUVECs = experiment: HUVEC adhesion to basement membrane substrata
Method: (§1) Human umbilical vein endothelial cells (H 930) were generously supplied by Dr. Tom Maciag, American Red Cross (Gaithersburg, Md., USA) and were used between passages 9 and 14 to avoid senescence. HUVECs were grown on fibronectin-coated tissue culture plastic (200 μg/150 mm dish) in complete medium (Medium 199 (M-199) containing 5 U/mL preservative-free heparin, 25.5 μg/mL ECGS, 10% fetal bovine serum and 100 U/mL penicillin, 100 μg/mL streptomycin, and 0.25 μg/mL fungizone).
Adhesion of control and compound 1-treated HUVECs to specific substrata was tested as follows. Glass slides coated with specific adhesion substrata were prepared by placement of 10 μL aliquots of 25 nM each fibronectin,laminin, gelatin or type IV collagen into triplicate wells of multichamber slides. Slides were incubated at 37° C. for 2 hours and then air-dried overnight. The following day the slides were blocked with 300 μL of blocking buffer (Tris […] pH 7.8, NaCl 111 mM, CaCl2 5 mM, and 1% BSA) for 30 min at 37° C. HUVECs were harvested with trypsin-EDTA and allowed to recover at 37° C. in complete medium for at least 1 hr. The cells were then washed free of serum and resuspended at 1×10^6 cells/mL in control medium followed by addition to the coated wells (200 μL) and incubation at 37° C. for 90 min. After incubation, the slides were washed gently three times with DPBS and the adherent cells were fixed and stained as above. Five high power fields per well in triplicate were counted to determine the number of cells attached to the different substrata. Data are expressed as percentage of control cell adhesion (x±SEM, n=3).

bFGF receptor = experiment: bFGF-induced tyrosine phosphorylation in HUVECs (phosphotyrosine immunoprecipitation and Western analysis); conditions: 10 μM
Method: as §1
It exerts its activity through activation of the bFGF receptor kinase with subsequent autophosphorylation of its receptor as well as phosphorylation of other signaling proteins. See, Jaye, et al., Biochim. Biophys. Acta 1135:185-199 (1992). Phosphotyrosine immunoprecipitation and Western analysis were used to investigate the effect of compound 1 on bFGF-mediated tyrosine phosphorylation.
The following day, cells were exposed to bFGF, 10 ng/mL for 15 min at 37° C. Cells were quickly washed with cold DPBS, scraped from the plate and lysed with lysis buffer (50 mM Tris-HCl pH 7.6, 300 mM NaCl, 10 μg/mL aprotinin, 1 mM phenylmethylsulphonylfluoride (PMSF), 400 μM sodium orthovanadate, 400 μM EDTA, 100 mM sodium fluoride, 100 mM sodium pyrophosphate, and 0.5% Triton-X 100) for 1 hr on ice. The lysates were centrifuged at 4° C. at 1200×g for 15 minutes after which the supernatants were saved and protein concentration determined using bicinchoninic assay protein detection method. Aliquots of lysis protein ([…] per sample) were incubated with 10 μg of anti-phosphotyrosine monoclonal antibody, 4G10, pre-conjugated to protein A-sepharose beads for 1 hr at 4° C. The beads were washed three times with buffer containing 0.1% Triton X-100 and then the immunoprecipitated proteins were eluted with 2X Laemmli sample buffer and subjected to 4-12% gradient gel electrophoresis. Proteins were transferred electrically, blocked (7.5% glycine, 5% dry milk, 1% ovalbumin) for 30 min at room temperature, then washed (0.001% ovalbumin, 0.001% dry milk, 0.001% Tween-20 in phosphate-buffered saline (PBS)). […]

MMP-2 = experiment: Gelatin zymography of HUVEC conditioned medium, MMP-2 gelatinase activity (basal); conditions: 24 hr
Method: as §1
Angiogenesis is characterized by a local degradation of subendothelial basement membrane by endothelial cell-secreted gelatinases. Aliquots of concentrated HUVEC conditioned medium from compound 1-treated and control cells were subjected to gelatin zymography, in order to test the effect of compound 1 on metalloproteinase production.
Gelatin zymography was carried out as described in Brown, et al., Cancer Research 50:6184-6191 (1990). HUVECs were seeded at 1.2×10^5 /cm^2 in 25 cm^2 fibronectin-coated tissue culture flasks in complete medium containing increasing concentrations of compound 1 (0.1-10 μM) or DMSO vehicle control. After 18 hr of culture, the complete medium was removed and the cells were washed once with serum-free M-199 supplemented with 5 μg/mL bovine insulin, 5 μg/mL human transferrin and 5 ng/mL sodium selenite (ITS). […]

In the case of `NC(=O)c1nnn(Cc2cc(Cl)c(C(=O)c3ccc(Cl)cc3)c(Cl)c2)c1N` [Compound 1, 5-amino-1-(4-(4-chlorobenzoyl)-3,5-dichlorobenzyl)1,2,3-triazole-4-carboxamide], the “inhibition of HUVEC adhesion to all substrata tested (in words)” value (HUVECs; 0-10 μM, 18 hr pretreatment) is reported as “inhibited in a dose-dependent fashion”, the “inhibition of HUVEC adhesion to collagen type IV (in words)” value (HUVECs; 1.0 μM, 18 hr pretreatment, P2<0.027) is reported as “statistically significant” and the “inhibition of HUVEC adhesion to laminin (in words)” value (HUVECs; 1.0 μM, 18 hr pretreatment, P2<0.04) is reported as “statistically significant”. For the same molecule, the “inhibition of HUVEC adhesion to fibronectin (in words)” value (HUVECs; 1.0 μM, 18 hr pretreatment, P2<0.043) was “statistically significant”, the “inhibition of HUVEC adhesion to laminin (in words)” value (HUVECs; 10.0 μM, 18 hr pretreatment, p2<0.004) was “statistically significant” and the “inhibition of HUVEC adhesion to fibronectin (in words)” value (HUVECs; 10.0 μM, 18 hr pretreatment, p2<0.011) was “statistically significant”. The “inhibition of HUVEC adhesion to collagen type IV (in words)” value (HUVECs; 10.0 μM, 18 hr pretreatment, p2<0.025) was “statistically significant”, the “inhibition of HUVEC adhesion to gelatin (in words)” value (HUVECs; preincubation of HUVECs with compound) was “did not significantly inhibit adhesion” and the “effect on bFGF-stimulated tyrosine phosphorylation (in words)” value (bFGF receptor; 18 hr, bFGF 10 ng/mL for final 15 minutes) was “inhibition of bFGF-stimulated phosphorylation”. The “effect on bFGF-stimulated tyrosine phosphorylation, including autophosphorylation of bFGF receptor (in words)” value (bFGF receptor; bFGF 10 ng/mL) was “blocked bFGF-stimulated tyrosine phosphorylation”, the “effect on basal tyrosine phosphorylation (in words)” value (bFGF receptor; no bFGF) was “Neither DMSO control (lane 1) or compound 1 (10 μM, lane 2) altered basal tyrosine phosphorylation” and the “inhibition of proMMP-2 and its activated form (in words)” value (MMP-2; 0.1-10 μM) was “dose-dependent inhibition”. The inhibition at 10 µM (MMP-2; Homo sapiens, HUVEC, 10.0 μM, read-out: decrease in MMP-2 (densitometric analysis)) was 50%.
